Results taken from US4584187A, “Imaging agent and method of use” (priority 1981, dated 1986).
Read-outs that look alike come from different tables or passages of the source.

Tests used:
adrenal medulla = test: MIBG adrenal imaging in MEN-2 patients; assay type: in vivo, human; conditions: for MIBG Adrenal Imaging: 1 and 2 days
Procedure: To display adrenal medullary abnormalities, 500 μCi of ^131 I-mIBG was injected into 6 patients from 5 families with MEN-2 and scintiscans were performed 1 and 2 days later. Percent administered dose uptake was calculated using a semioperator independent algorithm. Adrenal medullary function was assessed by plasma norepinephrine (N) and epinephrine (E) and urinary N, E, metanephrine (M), and normetanephrine (NM) levels.

Pheochromocytomas (PHEO) = test: Scintigraphic localization of pheochromocytomas with I-131-mIBG in patients and controls; assay type: in vivo, human
Procedure: Pheochromocytomas (PHEO) were localized with I-131-meta-iodobenzylguanidine(^131 I-mIBG). Five hypertensive patients without PHEO served as controls. I-131-mIBG, 0.5 mCi, was given i.v. Images of areas of interest were made at 24, 48 and 72 hours post-injection. Adrenal (tumor) uptake was estimated with a semioperator-independent computer algorithm. All patients with sporadic PHEO gave clinical and hormonal evidence of their disease.

[1] = Stability of radiolabeled compound on storage in solution; assay type: physicochemical; conditions: 4° C., dark
From the text: The radiochemical purity was greater than 98% as determined by thin-layer chromotography on silica gel G using two solvent systems: (1) 1/l ethyl acetate: ethanol (Rf=0.0; Rf of free radioiodide=0.60); (2) 3/l n-propanol: 10% ammonium hydroxide (Rf=0.15, Rf of free radioiodide=0.75, Rf of meta-iodobenzylamine=0.35). […] Final […].

[2] = tested on: adrenergic neurons of the heart and chromaffin granules of the adrenal medulla; test: Localization in adrenergic tissues; assay type: in vivo
[3] = set-up: species or system rats; conditions: rat, in vivo, iv, 30 min
Procedure: (§1) Biological tissue distribution studies were performed on rats, dogs and monkeys injected intravenously with 25 μCi and 100 μCi respectively of I-125 iodobenzylguanidine in an average volume of 0.3 ml, 2 ml, and 1 ml respectively. Representative samples of tissues were counted in an autogamma counter with corrections made for radioactive decay, background, and counter efficiency. To normalize for differences in animal weights, tissue concentrations are expressed as percent kilogram dose per gram.

[4] = set-up: species or system Rhesus Monkeys; conditions: rhesus monkey, in vivo, iv, 180 min
Procedure: as §1

[5] = Biological tissue distribution of I-125 iodobenzylguanidine in dogs; assay type: in vivo, Female Mongrel Dogs
Procedure: as §1

SMILES: N=C(N)NCc1cccc([131I])c1 [^131 I-mIBG, I^131 -meta-iodobenzylguanidine]
- MIBG Adrenal Imaging (adrenal medulla; patient 1 (apparently unaffected, plasma/urine normal), 500 μCi): Nonvisualized
- MIBG Adrenal Imaging (adrenal medulla; patient 2 (MEN 2a, plasma/urine normal), 500 μCi): Nonvisualized
- MIBG Adrenal Imaging (adrenal medulla; patient 3 (MEN 2a, urine M raised), 500 μCi): Faint bilateral
- MIBG Adrenal Imaging (adrenal medulla; patient 4 (MEN 2b, plasma N, urine NM raised), 500 μCi): Distinct bilateral
- MIBG Adrenal Imaging (adrenal medulla; patient 5 (MEN 2a, plasma N,E, urine E,NM,M raised), 500 μCi): Distinct bilateral
- MIBG Adrenal Imaging (adrenal medulla; patient 6 (MEN 2a, plasma N,E, urine E,NM,M raised), 500 μCi): Asymmetric bilateral
- scintigraphy of right adrenal gland (adrenal medulla; patient 6, confirmed at surgery, only irregular area on CT): two distinct tumors
- adrenal imaging, patients 1 and 2 (adrenal medulla; patients 1 and 2, pattern recognized by control studies as normal): Neither patient 1 nor patient 2, who was affected with medullary thyroid carcinoma, showed adrenal imaging
- percent uptake by the adrenal glands versus hormone values (adrenal medulla; remaining 4 patients (3-6), 500 μCi): increased proportionally to the urine and plasma hormone values
- activity seen in malignant (metastatic) PHEO (Pheochromocytomas (PHEO); another patient with malignant (metastatic) PHEO): only ill-defined activity was seen
- scintigrams in PHEO patients (Pheochromocytomas (PHEO); each of eight PHEO patients, 0.5 mCi i.v., 24, 48 and 72 hours): located abnormal collections of activity
- patients in whom abnormalities correspond to PHEOs subsequently excised (Pheochromocytomas (PHEO); eight PHEO patients, 0.5 mCi i.v.): 7 of the 8
- scintigraphic image of adrenal glands in control subjects (Pheochromocytomas (PHEO); five hypertensive controls without PHEO, 0.5 mCi i.v., 24, 48 and 72 hours): little or no scintigraphic image of their adrenal glands
- activity seen in malignant (metastatic) PHEO (Pheochromocytomas (PHEO); one patient with malignant (metastatic) PHEO): multiple areas of activity were seen in the skull, chest and abdomen
- decomposition on storage ([1]; up to 4 days as sulfate salt in water or physiological saline, I-131): no detectable decomposition

SMILES: N=C(N)NCc1cccc(I)c1 [meta-iodobenzylguanidine, Meta-iodobenzylguanidine]
- accumulation in adrenergic tissues ([2]; compared with norepinephrine and guanethidine): accumulated in adrenergic tissues in a manner similar to norepinephrine and guanethidine
- localization ([2]; heart and adrenal medulla): localizes in the adrenergic neurons of the heart and chromaffin granules of the adrenal medulla

SMILES: N=C(N)NCc1cccc([125I])c1 [I-125 iodobenzylguanidine]
- Tissue concentration, Blood (Mean ± S.E.M.) [3]: .03 ± .00 % Kg Dose/g
- Tissue concentration, Heart (Mean ± S.E.M.) [3]: 1.09 ± .06 % Kg Dose/g
- Tissue concentration, Liver (Mean ± S.E.M.) [3]: .36 ± .02 % Kg Dose/g
- Tissue concentration, Lung (Mean ± S.E.M.) [3]: .70 ± .06 % Kg Dose/g
- Tissue concentration, Muscle (Mean ± S.E.M.) [3]: .25 ± .02 % Kg Dose/g
- Tissue concentration, Thyroid (Mean ± S.E.M.) [3]: .76 ± .04 % Kg Dose/g
- Tissue concentration, Adrenal Cortex (Mean ± S.E.M.) [4]: 0.42 ± .12 % Kg Dose/g
- Tissue concentration, Adrenal Medullae (Mean ± S.E.M.) [4]: 2.69 ± .28 % Kg Dose/g
- Tissue concentration, Blood (Mean ± S.E.M.) [4]: 0.02 ± .00 % Kg Dose/g
- Tissue concentration, Heart (Mean ± S.E.M.) [4]: 0.64 ± .03 % Kg Dose/g
- Tissue concentration, Liver (Mean ± S.E.M.) [4]: 0.76 ± .03 % Kg Dose/g
- Tissue concentration, Lung (Mean ± S.E.M.) [4]: 0.17 ± .00 % Kg Dose/g
- Tissue concentration, Muscle (Mean ± S.E.M.) [4]: 0.02 ± .00 % Kg Dose/g
- Tissue concentration, Liver (Mean ± S.E.M.) ([5]; dog, in vivo, iv, 30 min): 0.34 ± .03 % Kg Dose/g
- Tissue concentration, Lung (Mean ± S.E.M.) ([5]; dog, in vivo, iv, 30 min): 0.22 ± .06 % Kg Dose/g
- Tissue concentration, Muscle (Mean ± S.E.M.) ([5]; dog, in vivo, iv, 30 min): 0.02 ± .00 % Kg Dose/g
- Tissue concentration, Thyroid (Mean ± S.E.M.) ([5]; dog, in vivo, iv, 30 min): 0.56 ± .07 % Kg Dose/g
- Tissue concentration, Adrenal Cortex (Mean ± S.E.M.) ([5]; dog, in vivo, iv, 120 min): 0.39 ± .05 % Kg Dose/g
- Tissue concentration, Adrenal Medulla (Mean ± S.E.M.) ([5]; dog, in vivo, iv, 120 min): 6.29 ± .25 % Kg Dose/g
- Tissue concentration, Blood (Mean ± S.E.M.) ([5]; dog, in vivo, iv, 120 min): 0.02 ± .00 % Kg Dose/g
- Tissue concentration, Heart (Mean ± S.E.M.) ([5]; dog, in vivo, iv, 120 min): 0.50 ± .10 % Kg Dose/g
- Tissue concentration, Liver (Mean ± S.E.M.) ([5]; dog, in vivo, iv, 120 min): .017 ± .05 % Kg Dose/g
- Tissue concentration, Lung (Mean ± S.E.M.) ([5]; dog, in vivo, iv, 120 min): 0.46 ± .13 % Kg Dose/g
- Tissue concentration, Muscle (Mean ± S.E.M.) ([5]; dog, in vivo, iv, 120 min): 0.04 ± .00 % Kg Dose/g
- Tissue concentration, Adrenal Cortex (Mean ± S.E.M.) ([5]; dog, in vivo, iv, 2880 min): 0.10 ± .01 % Kg Dose/g
- Tissue concentration, Adrenal Medulla (Mean ± S.E.M.) ([5]; dog, in vivo, iv, 2880 min): 13.6 ± 1.1 % Kg Dose/g
- Tissue concentration, Blood (Mean ± S.E.M.) ([5]; dog, in vivo, iv, 2880 min): 0.01 ± .00 % Kg Dose/g
- Tissue concentration, Heart (Mean ± S.E.M.) ([5]; dog, in vivo, iv, 2880 min): 0.06 ± .01 % Kg Dose/g
- Tissue concentration, Liver (Mean ± S.E.M.) ([5]; dog, in vivo, iv, 2880 min): 0.02 ± .00 % Kg Dose/g
- Tissue concentration, Lung (Mean ± S.E.M.) ([5]; dog, in vivo, iv, 2880 min): 0.03 ± .00 % Kg Dose/g
- Tissue concentration, Muscle (Mean ± S.E.M.) ([5]; dog, in vivo, iv, 2880 min): 0.02 ± .00 % Kg Dose/g
- Tissue concentration, Adrenal Cortex (Mean ± S.E.M.) ([5]; dogs (2), i.v., 30 min, adrenal cortex): 0.61 ± .02 % Kg Dose/g
- Tissue concentration, Adrenal Medulla (Mean ± S.E.M.) ([5]; dogs (2), i.v., 30 min, adrenal medulla): 5.35 ± .71 % Kg Dose/g
- Tissue concentration, Blood (Mean ± S.E.M.) ([5]; dogs (2), i.v., 30 min, blood): 0.02 ± .00 % Kg Dose/g
- Tissue concentration, Heart (Mean ± S.E.M.) ([5]; dogs (2), i.v., 30 min, heart): 0.47 ± .02 % Kg Dose/g
- Tissue concentration, Thyroid (Mean ± S.E.M.) ([5]; dogs (2), i.v., 2 hours, thyroid): 0.56 ± .05 % Kg Dose/g
- Tissue concentration, Thyroid (Mean ± S.E.M.) ([5]; dogs (2), i.v., 48 hours, thyroid): 1.27 ± .47 % Kg Dose/g

SMILES: N=C(N)NCc1cccc([123I])c1 [I^123 -meta-iodobenzylguanidine]
- radio-composition (decomposition) on storage ([1]; up to 4 days as sulfate salt in water or physiological buffered saline, I-123): minimal detectable radio-composition
